Measured values from patent US9309198B2, “N-[3-(2-carboxyethyl)phenyl]piperidin-1-ylacetamide derivatives and use thereof as activators of soluble guanylate cyclase” (Bayer Pharma Aktiengesellschaft, priority 2012, dated 2016).

Key:
[1] = target: T1, recombinant guanylate cyclase reporter cell line (sGC, CHO reporter cell) (Rattus norvegicus, UniProt P20595); assay: Effect on a recombinant guanylate cyclase reporter cell line (CHO reporter cell); type: cell-based
T1 construct: expressed in transfected cells; host or cells: CHO reporter cell line
T1 sequence (P20595 1-619): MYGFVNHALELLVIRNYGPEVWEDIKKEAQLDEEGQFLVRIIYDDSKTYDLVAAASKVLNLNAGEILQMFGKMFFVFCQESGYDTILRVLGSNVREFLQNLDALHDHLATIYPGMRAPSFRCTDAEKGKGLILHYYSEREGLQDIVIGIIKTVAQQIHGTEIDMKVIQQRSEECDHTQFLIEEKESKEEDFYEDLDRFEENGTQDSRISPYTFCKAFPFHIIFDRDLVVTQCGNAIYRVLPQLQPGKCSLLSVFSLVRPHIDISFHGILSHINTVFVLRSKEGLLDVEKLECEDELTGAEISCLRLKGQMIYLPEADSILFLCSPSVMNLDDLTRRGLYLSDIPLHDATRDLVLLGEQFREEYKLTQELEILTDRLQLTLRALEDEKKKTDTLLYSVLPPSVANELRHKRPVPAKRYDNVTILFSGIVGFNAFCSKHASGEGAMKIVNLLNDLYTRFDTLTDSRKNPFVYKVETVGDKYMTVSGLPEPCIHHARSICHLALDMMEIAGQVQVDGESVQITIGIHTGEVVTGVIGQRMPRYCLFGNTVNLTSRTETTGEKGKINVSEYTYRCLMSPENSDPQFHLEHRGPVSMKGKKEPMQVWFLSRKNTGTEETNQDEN
T1 sequence (P19686 1-690 partner): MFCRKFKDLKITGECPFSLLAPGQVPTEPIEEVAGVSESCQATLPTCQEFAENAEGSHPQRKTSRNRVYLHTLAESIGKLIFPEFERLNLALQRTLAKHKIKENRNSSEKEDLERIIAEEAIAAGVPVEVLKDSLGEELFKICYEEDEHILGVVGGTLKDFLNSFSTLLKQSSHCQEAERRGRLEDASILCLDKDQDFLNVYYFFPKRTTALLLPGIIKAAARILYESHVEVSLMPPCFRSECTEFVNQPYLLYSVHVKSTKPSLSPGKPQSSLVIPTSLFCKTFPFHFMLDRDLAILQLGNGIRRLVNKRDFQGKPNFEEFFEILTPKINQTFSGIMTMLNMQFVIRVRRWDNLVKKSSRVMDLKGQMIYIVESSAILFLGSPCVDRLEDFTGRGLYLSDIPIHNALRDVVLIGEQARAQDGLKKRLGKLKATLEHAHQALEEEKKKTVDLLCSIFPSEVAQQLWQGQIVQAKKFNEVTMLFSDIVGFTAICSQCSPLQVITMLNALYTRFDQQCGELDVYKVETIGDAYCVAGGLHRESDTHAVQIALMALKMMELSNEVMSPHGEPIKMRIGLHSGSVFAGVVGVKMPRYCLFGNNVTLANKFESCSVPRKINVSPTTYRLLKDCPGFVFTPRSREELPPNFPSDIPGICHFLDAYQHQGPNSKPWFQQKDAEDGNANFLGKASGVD
Experimental: B-2. Effect on a Recombinant Guanylate Cyclase Reporter Cell Line The cellular activity of the compounds according to the invention is determined using a recombinant guanylate cyclase reporter cell line, as described in F. Wunder et al., Anal. Biochem. 339, 104-112 (2005).

[2] = target: T2, soluble guanylate cyclase (sGC) (Rattus norvegicus, UniProt P20595); assay: Stimulation of sGC enzyme activity (PPi detection, luciferase luminescence); type: biochemical; conditions: for EC50: read-out: EC50 (half-maximal effective concentration), activating action at the sGC enzyme in vitro
T2 construct: made in house
T2 sequence (P20595 1-619): T1 sequence (P20595 1-619)
T2 sequence (P19686 1-690 partner): T1 sequence (P19686 1-690 partner)
Experimental: B-3. Stimulation of sGC Enzyme Activity
Soluble guanylate cyclase (sGC) converts on stimulation GTP into cGMP and pyrophosphate (PPi). PPi is detected with the aid of the assay described below. The signal produced in the assay increases as the reaction progresses and serves as a measure of the sGC enzyme activity under the given stimulation.
To carry out the assay, 29 μl of enzyme solution [0-10 nM soluble guanylate cyclase (prepared according to Hönicka et al., J. Mol. Med. 77, 14-23 (1999)) in 50 mM TEA, 2 mM MgCl2, 0.1% BSA (fraction V), 0.005% Brij®, pH 7.5] are initially introduced into a microplate, and 1 μl of the substance to be tested (as a serially diluted solution in DMSO) is added. The mixture is incubated at room temperature for 10 min. Then 20 μl of detection mix [1.2 nM Firefly Luciferase (Photinus pyralis luciferase, Promega), 29 μM dehydroluciferin (prepared according to Bitler & McElroy, Arch. Biochem. Biophys. 72, 358 (1957)), 122 μM luciferin (Promega), 153 μM ATP (Sigma) and 0.4 mM DTT (Sigma) in 50 mM TEA, 2 mM MgCl2, 0.1% BSA (fraction V), 0.005% Brij®, pH 7.5] are added. The enzyme reaction is started by adding 20 μl of substrate solution [1.25 mM guanosine 5′-triphosphate (Sigma) in 50 mM TEA, 2 mM MgCl2, 0.1% BSA (fraction V), 0.005% Brij®, pH 7.5] and measured continuously in a luminometer. The extent of the stimulation by the substance to be tested can be determined relative to the signal of the unstimulated reaction.
The activation of haem-free guanylate cyclase is examined by addition of 25 μM of 1H-1,2,4-oxadiazolo[4,3-a]quinoxalin-1-one (ODQ) to the enzyme solution and subsequent incubation for 30 minutes and compared to the stimulation of the native enzyme.

[3] = target: T3, recombinant soluble guanylate cyclase (sGC), haem-containing (Rattus norvegicus, UniProt P20595); assay: Stimulation of recombinant soluble guanylate cyclase (sGC) in vitro, haem-containing enzyme; type: biochemical; conditions: for Stimulation (x-times) of haem-containing sGC, Basal: n = 2
T3 construct: made in house
T3 sequence (P20595 1-619): T1 sequence (P20595 1-619)
T3 sequence (P19686 1-690 partner): T1 sequence (P19686 1-690 partner)
Excerpt: (§1) B-1. Stimulation of Recombinant Soluble Guanylate Cyclase (sGC) In Vitro
Hoenicka, E. M. Becker, H. Apeler, T. Sirichoke, H. Schroeder, R. Gerzer and J.-P. Stasch, “Purified soluble guanylyl cyclase expressed in a baculovirus/Sf9 system: Stimulation by YC-1, nitric oxide, and carbon oxide”, J. Mol. Med. 77 (1999), 14-23. Haem-free guanylate cyclase is obtained by adding Tween 20 to the sample buffer (final concentration 0.5%).
(§2) Activation of sGC by a test substance is stated as x-fold stimulation of basal activity.

[4] = target: T4, recombinant soluble guanylate cyclase (sGC), haem-free (Rattus norvegicus, UniProt P20595); assay: Stimulation of recombinant soluble guanylate cyclase (sGC) in vitro, haem-free enzyme; type: biochemical; conditions: n = 2
T4 construct: made in house
T4 sequence (P20595 1-619): T1 sequence (P20595 1-619)
T4 sequence (P19686 1-690 partner): T1 sequence (P19686 1-690 partner)
Experimental: as §1
The investigations on the stimulation of recombinant soluble guanylate cyclase (sGC) by the compounds according to the invention with and without sodium nitroprusside and with and without the haem-dependent sGC inhibitor 1H-1,2,4-oxadiazolo[4,3-a]quinoxalin-1-one (ODQ) are carried out by the method described in detail in the following literature reference: M. Hoenicka, E. M. Becker, H. Apeler, T. Sirichoke, H. Schroeder, R. Gerzer and J.-P. Stasch, “Purified soluble guanylyl cyclase expressed in a baculovirus/Sf9 system: Stimulation by YC-1, nitric oxide, and carbon oxide”, J. Mol. Med. 77 (1999), 14-23. Haem-free guanylate cyclase is obtained by adding Tween 20 to the sample buffer (final concentration 0.5%).
as §2

MEC (minimum effective concentration), sGC-activating activity in the CHO reporter cell in vitro [1]	MEC (minimum effective concentration), activating action at the sGC enzyme in vitro [2]	EC50 [2]	Compound	further results
10 nM	17 nM	210 nM	C[C@H]([C@H](C(=O)Nc1cc(C[C@H](C)C(=O)O)ccc1Cl)N1CCC2(CC1)CC2)C(F)(F)F (single isomer, unassigned) [Example 46]	
1 nM	3.9 nM	81 nM	C[C@H](CC(=O)O)c1ccc(Cl)c(NC(=O)[C@@H]([C@@H](C)C(F)(F)F)N2CCC3(CC2)CC3)c1 (single isomer, unassigned) [Example 47]	
3 nM	1.1 nM	33 nM	CC1CCN([C@@H](C(=O)Nc2cc([C@H](C)CC(=O)O)ccc2Cl)[C@@H](C)C(F)(F)F)CC1 (single isomer, unassigned) [Example 48]	
2.3 nM	3 nM	25 nM	CC1CCN(C(C(=O)Nc2cc(CC3(C(=O)O)CC3)ccc2F)C(C)C(F)(F)F)CC1 (single isomer, unassigned; (+)) [Example 36, (+)-1-(4-Fluoro-3-{[4,4,4-trifluoro-3-methyl-2-(4-methylpiperidin-1-yl)butanoyl]amino}benzyl)cyclopropanecarboxylic acid]	
30 nM	6.9 nM	540 nM	C[C@H]([C@H](C(=O)Nc1cc(CCC(=O)O)ccc1F)N1CCC(C2CC2)CC1)C(F)(F)F [Example 18]	
1 nM	2.2 nM	15 nM	C[C@H]([C@H](C(=O)Nc1cc(CC2(C(=O)O)CC2)ccc1Cl)N1CCC2(CC1)CC2)C(F)(F)F [Example 25, 1-(3-{[(2R,3R)-2-(6-Azaspiro[2.5]oct-6-yl)-4,4,4-trifluoro-3-methylbutanoyl]amino}-4-chlorobenzyl)cyclopropanecarboxylic acid]	Stimulation (x-times) of haem-containing sGC, +0.01 μM DEA/NO ([3]; 0.01 μM Example 25 + 0.01 μM DEA/NO): 11.4 ± 3.9 x-times; Stimulation (x-times) of haem-containing sGC, +10 μM ODQ ([3]; 0.01 μM Example 25 + 10 μM ODQ): 2.3 ± 0.1 x-times; Stimulation (x-times) of haem-containing sGC, Basal ([3]; 0.01 μM Example 25): 0.9 ± 0.2 x-times; Stimulation (x-times) of haem-containing sGC, +0.01 μM DEA/NO ([3]; 0.1 μM Example 25 + 0.01 μM DEA/NO): 11.9 ± 4.2 x-times; Stimulation (x-times) of haem-containing sGC, +10 μM ODQ ([3]; 0.1 μM Example 25 + 10 μM ODQ): 2.7 ± 0.2 x-times; Stimulation (x-times) of haem-containing sGC, Basal ([3]; 0.1 μM Example 25): 0.9 ± 0.0 x-times; Stimulation (x-times) of haem-containing sGC, +0.01 μM DEA/NO ([3]; 1.0 μM Example 25 + 0.01 μM DEA/NO): 12.0 ± 3.9 x-times; Stimulation (x-times) of haem-containing sGC, +10 μM ODQ ([3]; 1.0 μM Example 25 + 10 μM ODQ): 10.5 ± 2.4 x-times; Stimulation (x-times) of haem-containing sGC, Basal ([3]; 1.0 μM Example 25): 2.8 ± 0.4 x-times; Stimulation (x-times) of haem-containing sGC, +0.01 μM DEA/NO ([3]; 10 μM Example 25 + 0.01 μM DEA/NO): 15.1 ± 2.9 x-times; Stimulation (x-times) of haem-containing sGC, +10 μM ODQ ([3]; 10 μM Example 25 + 10 μM ODQ): 32.5 ± 5.4 x-times; Stimulation (x-times) of haem-containing sGC, Basal ([3]; 10 μM Example 25): 8.6 ± 0.2 x-times; Effect of combination with the NO donor DEA/NO on sGC stimulation ([3]; combination with DEA/NO, haem-containing sGC): no synergistic effect; Effect of the haem-dependent sGC inhibitor ODQ on the activity of the sGC activator ([3]; with ODQ, haem-containing sGC): not blocked but, in contrast, even enhanced; Stimulation (x-times) of haem-free sGC, Basal ([4]; 0.01 μM Example 25): 1.9 ± 0.8 x-times; Stimulation (x-times) of haem-free sGC, Basal ([4]; 0.1 μM Example 25): 2.4 ± 0.8 x-times; Stimulation (x-times) of haem-free sGC, Basal ([4]; 1.0 μM Example 25): 7.3 ± 3.6 x-times; Stimulation (x-times) of haem-free sGC, Basal ([4]; 10 μM Example 25): 26.6 ± 7.3 x-times
1 nM	0.8 nM	10 nM	CCC1CCN([C@@H](C(=O)Nc2cc(CC3(C(=O)O)CC3)ccc2Cl)[C@@H](C)C(F)(F)F)CC1 [Example 26, 1-(4-Chloro-3-{[(2R,3R)-2-(4-ethylpiperidin-1-yl)-4,4,4-trifluoro-3-methylbutanoyl]amino}benzyl)cyclopropanecarboxylic acid]	
10 nM	10.5 nM	210 nM	CC1CCN([C@@H](C(=O)Nc2cc(C[C@H](C)C(=O)O)ccc2Cl)[C@@H](C)C(F)(F)F)CC1 [Example 27]	
10 nM	10.5 nM	90 nM	C[C@H]([C@H](C(=O)Nc1cc(C[C@H](C)C(=O)O)ccc1Cl)N1CCC(C(F)(F)F)CC1)C(F)(F)F [Example 34]	
1 nM	1.2 nM		CC1CCN([C@@H](C(=O)Nc2cc(CC3(C(=O)O)CC3)ccc2Cl)[C@@H](C)C(F)(F)F)CC1 [Example 51, 1-(4-Chloro-3-{[(2R,3R)-4,4,4-trifluoro-3-methyl-2-(4-methylpiperidin-1-yl)butanoyl]amino}benzyl)cyclopropanecarboxylic acid]	
